Where two headings read alike, the source gives them in different places.
Assays:
[1] = tested on: IL-6 stimulated CCL2 (MCP-1) in human PBMCs; experiment: Cellular JAK potency assay: inhibition of IL-6 stimulated CCL2 (MCP-1) in human PBMCs; format: cell-based; settings: PBMC, 48 h stimulation, read-out: pIC50, inhibition of IL-6 stimulated CCL2 (MCP-1) (converted)
Method: (§1) The potency of the test compound for inhibition of interleukin-6 (IL-6) stimulated CCL2 (MCP-1) production was measured in human peripheral blood mononuclear cells (PBMCs) isolated from human whole blood (Stanford Blood Center). Because IL-6 signals through JAK, this assay provides a distal measure of JAK cellular potency.
(1) The protocol of Assay 3 paragraph (1) was followed up to the incubation with test compounds. In the present assay, after test compounds were added to wells and incubated, IL-6 (R&D Systems; final concentration 10 ng/ml) in pre-warmed assay media (50 μL) was added.
(2) After cytokine stimulation for 48 h, cells were centrifuged at 500 g for 5 min and supernatants were removed and frozen at −80° C. To determine the inhibitory potency of the test compound in response to IL-6, supernatant CCL2 (MCP-1) concentrations were measured via ELISA (R&D Systems). IC50 values were determined from analysis of the inhibition curves of concentration of CCL2/MCP-1 vs compound concentration. Data are expressed as pIC50 (negative decadic logarithm IC50) values.

[2] = molecular target: T1, Tyk2 (Homo sapiens, UniProt P29597); experiment: LanthaScreen JAK biochemical assay, Tyk2; settings: read-out: Tyk2 pKi (converted)
T1 construct: GST; purchased Life Technologies
T1 sequence (P29597 whole entry): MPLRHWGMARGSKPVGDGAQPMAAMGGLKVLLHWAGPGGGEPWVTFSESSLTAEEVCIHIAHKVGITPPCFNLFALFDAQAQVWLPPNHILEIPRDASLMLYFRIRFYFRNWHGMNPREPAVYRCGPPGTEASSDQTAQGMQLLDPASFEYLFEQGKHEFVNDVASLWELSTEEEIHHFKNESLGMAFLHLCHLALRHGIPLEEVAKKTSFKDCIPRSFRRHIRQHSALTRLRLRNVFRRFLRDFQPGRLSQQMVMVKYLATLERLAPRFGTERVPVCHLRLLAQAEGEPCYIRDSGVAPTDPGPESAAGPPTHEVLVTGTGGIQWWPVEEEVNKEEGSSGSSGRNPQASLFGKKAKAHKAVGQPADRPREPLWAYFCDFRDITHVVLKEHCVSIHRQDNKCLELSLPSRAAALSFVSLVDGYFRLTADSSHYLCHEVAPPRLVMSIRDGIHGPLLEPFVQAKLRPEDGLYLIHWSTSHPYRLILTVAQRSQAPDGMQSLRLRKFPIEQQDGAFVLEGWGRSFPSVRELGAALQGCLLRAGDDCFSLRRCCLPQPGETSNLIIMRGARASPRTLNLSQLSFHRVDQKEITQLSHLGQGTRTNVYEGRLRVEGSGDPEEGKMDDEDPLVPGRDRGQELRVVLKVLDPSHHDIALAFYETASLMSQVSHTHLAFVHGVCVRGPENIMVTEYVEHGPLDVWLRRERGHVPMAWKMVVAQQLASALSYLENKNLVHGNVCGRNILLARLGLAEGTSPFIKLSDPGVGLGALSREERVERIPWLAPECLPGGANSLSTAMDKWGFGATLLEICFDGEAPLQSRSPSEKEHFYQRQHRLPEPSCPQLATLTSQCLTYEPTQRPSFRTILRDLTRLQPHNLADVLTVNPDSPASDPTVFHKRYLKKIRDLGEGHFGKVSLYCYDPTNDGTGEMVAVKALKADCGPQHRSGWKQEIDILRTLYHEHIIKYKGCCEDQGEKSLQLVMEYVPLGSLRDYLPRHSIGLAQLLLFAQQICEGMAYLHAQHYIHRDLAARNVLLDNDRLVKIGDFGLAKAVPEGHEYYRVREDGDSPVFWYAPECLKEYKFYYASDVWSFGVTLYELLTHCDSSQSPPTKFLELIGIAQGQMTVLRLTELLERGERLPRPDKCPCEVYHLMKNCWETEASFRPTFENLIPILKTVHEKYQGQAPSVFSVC
Method: A panel of four LanthaScreen JAK biochemical assays (JAK1, 2, 3 and Tyk2) were carried in a common kinase reaction buffer (50 mM HEPES, pH 7.5, 0.01% Brij-35, 10 mM MgCl2, and 1 mM EGTA). Recombinant GST-tagged JAK enzymes and a GFP-tagged STAT1 peptide substrate were obtained from Life Technologies.
Serially diluted compound was pre-incubated with each of the four JAK enzymes and the substrate in white 384-well microplates (Corning) at ambient temperature for 1 h. ATP was subsequently added to initiate the kinase reactions in 10 μL total volume, with 1% DMSO. […] The plates were allowed to incubate at ambient temperature for 1 h before being read on the EnVision reader (Perkin Elmer). Emission ratio signals (520 nm/495 nm) were recorded and utilized to calculate the percent inhibition values based on DMSO and background controls.
For dose-response analysis, percent inhibition data were plotted vs. compound concentrations, and IC50 values were determined from a 4-parameter robust fit model with the Prism software (GraphPad Software). Results were expressed as pIC50 (negative logarithm of IC50) and subsequently converted to pKi (negative logarithm of dissociation constant, Ki) using the Cheng-Prusoff equation.

[3] = molecular target: T2, PKAC-ALPHA (Homo sapiens, UniProt P17612); experiment: Kinome screen, PKAC-ALPHA; format: binding; settings: screened at 1 μM
T2 construct: made in house; host or cells: T7 phage in E. coli (BL21-derived) or HEK-293
Method: Kinase-tagged T7 phage strains were grown in parallel in 24-well blocks in an E. coli host derived from the BL21 strain. E. coli were grown to log-phase and infected with T7 phage from a frozen stock (multiplicity of infection=0.4) and incubated with shaking at 32° C. until lysis (90-150 minutes). The lysates were centrifuged (6,000×g) and filtered (0.2 μm) to remove cell debris. The remaining kinases were produced in HEK-293 cells and subsequently tagged with DNA for qPCR detection.
Streptavidin-coated magnetic beads were treated with biotinylated small molecule ligands for 30 minutes at room temperature to generate affinity resins for kinase assays. The liganded beads were blocked with excess biotin and washed with blocking buffer (SeaBlock (Pierce), 1% BSA, 0.05% Tween 20, 1 mM DTT) to remove unbound ligand and to reduce non-specific phage binding. […] Test compounds were prepared as 40× stocks in 100% DMSO and directly diluted into the assay. All reactions were performed in polypropylene 384-well plates in a final volume of 0.04 ml. […] The beads were then re-suspended in elution buffer (1×PBS, 0.05% Tween 20, 0.5 μM non-biotinylated affinity ligand) and incubated at room temperature with shaking for 30 minutes. The kinase concentration in the eluates was measured by qPCR.

[4] = tested on: IL-6, IL-2, and IFNγ signaling; experiment: Cellular assays of Assays 3 to 6 (summary statement); format: cell-based; settings: Homo sapiens, cellular assays described in Assays 3 to 6
Method: as §1, with “interleukin-2 (IL-2)/anti-CD3” for “interleukin-6 (IL-6)”, “interferon gamma (IFNγ)” for “CCL2 (MCP-1) production”, “IL-2” for “IL-6”, “a” for “a distal”
The potency of the test compound for inhibition of interleukin-2 (IL-2)/anti-CD3 stimulated STAT5 phosphorylation was measured in CD4-positive (CD4+) T cells in human peripheral blood mononuclear cells (PBMCs) isolated from human whole blood (Stanford Blood Center) using flow cytometry. Because IL-2 signals through JAK, this assay provides a measure of JAK cellular potency.
as §1
The potency of the test compound for inhibition of interferon gamma (IFNγ) stimulated STAT1 phosphorylation was measured in CD14-positive (CD14+) monocytes derived from human whole blood (Stanford Blood Center) using flow cytometry. Because IFNγ signals through JAK, this assay provides a measure of JAK cellular potency.

CCc1cc(O)c(F)cc1-c1cc(F)c2c(-c3nc4c([nH]3)CCN(C(=O)CN3CCOCC3)C4)n[nH]c2c1 [Compound 1, 1-(2-(6-(2-ethyl-5-fluoro-4-hydroxyphenyl)-4-fluoro-1H-indazol-3-yl)-1,4,6,7-tetrahydro-5H-imidazo[4,5-c]pyridin-5-yl)-2-morpholinoethan-1-one]
IC50 [1]: ~398 nM | Ki [2]: 2 nM | inhibition at 1 µM [3]: 20% | IC50 ([4]; read-out: IC50 for inhibition of IL-6, IL-2, and IFNγ signaling): ≤ 400 nM | IC50 ([4]; read-out: pIC50 for inhibition of IL-6, IL-2, and IFNγ signaling (converted)): ≤ 398 nM

From patent US10493077B2, “Fused imidazo-piperidine JAK inhibitor compound” (THERAVANCE BIOPHARMA R&D IP, LLC, priority 2017, dated 2019)
